This note sets out measurements from a melting point compilation (Tetko et al.; mined from patent text by program, amines drawn as free bases though some values may be those of a salt).

Broadly, the melting point is the temperature of the solid-liquid transition. In turn, `CCC(=NNc1ccc(-c2ccc(=O)n(C)n2)cc1)c1ccc(O)cc1O` displayed a melting point of 225 to 233 °C.

Turning to `Cc1oc(-c2ccccc2)nc1CCOc1ccc(CC(C(=O)O)c2ccccc2)cc1` (stereo not given), the melting point lay in the range of 124 to 125 °C.

In the case of `C=Cc1cc(O)cc2nc(-c3ccc(O)cc3F)oc12`, the melting point lay in the range of 274 to 275 °C.

`COc1cc(Nc2c(C#N)cnc3cc(/C=C/C(=O)O)sc23)c(Cl)cc1Cl` came in with a melting point greater than 250 °C.

As to `COc1ccc(C2=NN(C3CCN(C(=O)N4CCNC4=O)CC3)C(=O)[C@H]3CC=CC[C@@H]23)cc1Cl` (relative stereo), the melting point lay within 216 to 218 °C.

For `Cc1cc(Br)cc(-c2ccc3c(c2)C(C)(C)OC(=O)N3)c1`, the melting point lay within 231 to 233 °C.

On to `Cc1cccc(-c2cc(Cl)cc3c2OC(CN=[N+]=[N-])C3)c1` (stereo not given), for which the melting point lay in the range of 48 to 50 °C.

For `CCC1(C)OC(c2ccc(S(N)(=O)=O)cc2)=C(c2ccc(OC)c(F)c2)C1=O` (stereo not given), the melting point fell in the range of 113 to 114 °C.

Turning to `CC(=O)N[C@@H](C)c1ccc(C(C)=O)cc1`, the melting point lay in the range of 125 to 128 °C.

`CN(C)CC1CCCCN1CCCNC(=O)N1c2ccccc2NC(=O)c2ccccc21` (stereo not given): the melting point fell in the range of 131 to 133 °C.

Take `CCCCC(=O)c1cc2n(c1)CCc1ccccc1C2=O`: the melting point lay in the range of 135 to 136 °C.

`COC(=O)c1ccc2nc(C)ccc2c1` returned a melting point of 98 to 101 °C.

As to `CCCCc1cn(CCC)c(=O)n1Cc1ccc(-c2ccccc2-c2nnn[nH]2)nc1`, the melting point fell in the range of 164 to 165 °C.

`CC(C)COC(=O)N[C@@H](Cc1ccccc1)C(=O)CSCc1ccco1`: the melting point lay within 58 to 59 °C.

In turn, `CCOC(=O)c1ccc(OCCCc2ccc(OC)c(OC)c2)cc1` showed a melting point of 70 to 71 °C.

In turn, `O=C1c2ccccc2CN1C1CCN(c2ccc(C(OCc3ccccc3)c3ccccc3)cc2)CC1` (stereo not given) came in with a melting point of 112 to 115 °C.

`CN(CCc1ccc([N+](=O)[O-])cc1)C1Cc2ccc([N+](=O)[O-])cc2C1` (stereo not given) displayed a melting point of 138 to 141 °C.

In turn, `COc1cnc2sc(SCc3ccccc3)nn2c1=O` displayed a melting point of 145 to 147 °C.

In turn, `O=C(CBr)Nc1ccc([N+](=O)[O-])cc1` returned a melting point of 175 to 178 °C.

On to `CC[C@H](C1CC1)n1cc(Cl)nc(N2CCc3cc(Br)cc(Cl)c32)c1=O`, for which the melting point lay within 126 to 127 °C.

The compound `COC(=O)N[C@H](C(=O)N[C@@H](Cc1ccccc1)[C@H](O)CN1C[C@H]2CCCC[C@H]2C[C@H]1C(=O)NC(C)(C)C)C(C)(C)S(C)(=O)=O` showed a melting point of 190 to 194 °C.

`CCOC(=O)CCCc1csc(NC(=O)NCc2ccccc2)n1` returned a melting point of 157 °C.

With `CC(=O)Nc1c(Cl)cnn(-c2ccccc2)c1=O`, the melting point was 177 to 178 °C.

As for `COc1cc(C)c(/C=C/c2nc3c(c(=O)n(C)c(=O)n3C)n2C)cc1C`, the melting point is greater than 280 °C.

With `CCCCN1C(=O)c2cnc(-c3ccccc3)nc2Nc2ccccc21`, the melting point was in the range of 140 to 141 °C.

The compound `O=S1(=O)c2cccc3cccc(c23)N1CCCN1CCN(c2ccc(Cl)cc2)CC1` returned a melting point of 120 °C.

In turn, `CCOC(=O)c1nccc2c(C)c3c(cc12)c1cc(OC)ccc1n3CC` registered a melting point of 149 °C.

As for `CC(C)Oc1ccc(CN/C=C2\C(=O)NC(=O)c3ccc(Br)cc32)cc1O`, the melting point lay in the range of 212 to 213 °C.

With `NNc1ccnc(-c2ccc([N+](=O)[O-])o2)n1`, the melting point was in the range of 220 to 222 °C.

`O=P(O)(O)CSc1nc2cc(Cl)c(C#Cc3ccccc3)cc2[nH]1` yielded a melting point of 210 to 215 °C.

`CCOC(=O)c1c(COc2cccc(C)n2)nc2cc(OC)c(OC)cc2c1-c1ccc(OC)c(OC)c1` yielded a melting point of 173 to 174 °C.

For `O=C(O)c1[nH]c2cc(Cl)cc(Cl)c2c1C=C1CCNN(c2ccccc2)C1=O`, the melting point is greater than 250 °C.

In turn, `Cc1ccc2ncc(C)cc2c1` showed a melting point of 50 °C.

As for `Clc1nc(Cl)c2cc(N3CCCCC3)ccc2n1`, the melting point is 101 to 102 °C.

Consider `Nc1ccc(Oc2ccc(O)c(C(=O)O)c2)cc1`, for which the melting point fell in the range of 223 to 224 °C.

`COc1cccc(CN(CC(=O)O)Cc2ccccc2)c1`: the melting point was in the range of 177 to 179 °C.

In turn, `CC(C)(Cc1ccc(OCCCC(=O)O)cc1)NCC(O)c1cc(OCc2ccccc2)cc2c1OCC(=O)N2` (stereo not given) came in with a melting point of 216 to 218 °C.

In turn, `COc1ccc(N2CCN(c3c(C)c(C)c4c(c3C)C(OCc3ccccc3)C(C)(C)O4)CC2)cc1` (stereo not given) yielded a melting point of 98 to 99 °C.

`C=C(C)C(=O)NC(=O)Nc1ccccc1` showed a melting point of 165 to 166 °C.

With `CN1C(=S)N(c2cc(C(F)(F)F)cc(C(F)(F)F)c2)C(O)C1O` (stereo not given), the melting point is 133 to 135 °C.

Take `COC(=O)C1CCn2c1cc(Br)c2C(=O)c1ccccc1` (stereo not given): the melting point was determined as 93 °C.

The compound `Cc1ncccc1C(C#N)N1CCN(C(=O)CC(NC(=O)c2cccc(OCc3ccc4ccccc4n3)c2)c2ccccc2)CC1` (stereo not given) returned a melting point of 101 to 104 °C.

`O=C(O)c1cccn2c(=O)c3c(nc12)CCC3` displayed a melting point of 189 to 193 °C.

`Cc1c(C(=O)c2cnn(C(C)C)c2O)ccc2sc(=O)n(C)c12` showed a melting point of 175 to 177 °C.

The compound `COc1ccc(C#N)c(Cl)c1OC(C)=O` yielded a melting point of 97 to 99 °C.

The compound `CC(C)(C)c1cc(SCCCC(=O)O)cc(C(C)(C)C)c1O` gave a melting point of 112 to 114 °C.

As to `Cc1cc(C)nc(NC(=S)NS(=O)(=O)c2ccccc2-c2ccccc2)n1`, the melting point fell in the range of 203 to 204 °C.

On to `CCN(C(=O)C(C)(C)C)c1cccc(-c2ccc3nnc(C)n3n2)c1`, for which the melting point lay in the range of 168 to 170 °C.

`CCCCC(C(=O)c1ccc(Cl)cc1)n1cncn1` (stereo not given) displayed a melting point of 81 to 83 °C.

`COC(=O)C1=CCC(C#N)(c2ccc(OC)c(OC3CCCC3)c2)CC1` (stereo not given) registered a melting point of 128 to 129 °C.

Take `CN(C)C=NC(=O)c1cc2c(cn1)[nH]c1ccccc12`: the melting point lay within 254 to 257 °C.

As for `N#CCOc1ccc(F)c(C(N)=O)c1F`, the melting point lay within 122 to 123 °C.

In turn, `CC(=O)CN1CCc2c(c(=O)oc3cc(C)ccc23)C1` displayed a melting point of 128 to 129 °C.

For `Clc1cc(-c2ccnc(NCC3CCCO3)n2)ccn1` (stereo not given), the melting point lay within 74 to 75 °C.

The compound `Oc1cccc(-c2cn3ccc4ccccc4c3n2)c1` displayed a melting point of 201 to 202 °C.

In the case of `CN1CCN(C2CC(=O)c3ccc(F)cc32)CC1` (stereo not given), the melting point was 102 to 103 °C.

`O=C(Nc1nonc1-c1ccc(Cl)cc1)NC1CCCCC1` displayed a melting point of 216 °C.

`CCN1CCN2C1=Nc1ccc(Cl)cc1C2c1ccccc1` (stereo not given) had a melting point of 145 to 146 °C.

With `CNC(=O)Cc1cccc(NC(=O)NC)c1`, the melting point was 175 to 177 °C.

In turn, `CCc1cc(=O)n(-c2cc(OC(C)C)c(Cl)cc2F)c(=O)n1C` returned a melting point of 72 to 74 °C.

With `CCCCn1c2c(c(=O)n(CCCC)c1=O)CN(S(=O)(=O)Cc1ccccc1)N2`, the melting point lay within 137 to 140 °C.

Compound `NC(N)=Nc1nc(-c2cccc(CCl)n2)cs1` displayed a melting point of 260 to 261 °C.

`NC(=O)c1cc(N)c(Oc2ccccc2)c(S(N)(=O)=O)c1` displayed a melting point of 291 to 292 °C.

As to `CN1C(=O)CC[C@]2(C)c3ccc(Sc4ccc5c([N+](=O)[O-])cccc5n4)cc3CC[C@@H]12`, the melting point is 149 to 154 °C.

Consider `COC(=O)CC1c2cc(N(C)C)ccc2N(C(C)=O)C1C` (stereo not given), for which the melting point turned out to be 122 °C.

`O=C(O)C(=O)CC(=O)c1cn(Cc2ccccc2)c2ccccc2c1=O` had a melting point of 141 to 142 °C.

Compound `Cc1cc(C)c(C)c(C(=O)CCl)c1C` showed a melting point of 65.5 °C.

`O=C1N[C@H]2[C@H](O)[C@H](O)[C@@H](O)[C@H](CO)[C@@H]2c2cc3c(cc21)OCO3` came in with a melting point greater than 200 °C.

`Cc1cc(C)n(-c2nc(Nc3cccc4cccnc34)c3ccccc3n2)n1` came in with a melting point of 184 to 185 °C.

As for `Cn1cc(C(=O)NCc2ccc(Cl)cc2)c(=O)c2cc(/C=C/CO)ccc21`, the melting point lay in the range of 103 to 106 °C.

With `COc1cc(N2CCN([C@H]3CC[C@H](c4cn(C)c5ccc(C#N)cc54)CC3)CC2)c2ncccc2c1C`, the melting point is 212 to 213 °C.

The compound `C=C1CCCCC1(C(=S)NC)c1cccnc1` (stereo not given) showed a melting point of 106 to 108 °C.

Compound `CC(C)n1c(=O)ccc2cnc(Nc3cccc([N+](=O)[O-])c3)nc21` gave a melting point of 202 to 203 °C.

`CN1C(=O)C2(COc3cc4c(cc32)OCCO4)c2c(Oc3ncccc3C(F)(F)F)cccc21` (stereo not given) had a melting point greater than 250 °C.

For `Cc1ccccc1N1CCN(CC(O)COc2cccc3c2CCCC3=O)CC1` (stereo not given), the melting point was in the range of 183 to 184 °C.

As to `O=C(O)C1(c2ccc3c(c2)CCCC3)CCC1`, the melting point was 123 to 126 °C.

Regarding `CN(C)c1onc2c1c(=O)n(C)c(=O)n2C`, the melting point is 188 to 190 °C.

In the case of `CN1CCC(=O)C(C2c3ccccc3C=Cc3ccccc32)C1` (stereo not given), the melting point lay within 144 to 158 °C.

`CC1(C)CC(=C(c2ccc(O)cc2)c2ccc(F)cc2)CC(C)(C)C1` returned a melting point of 134 to 135 °C.

`COc1ccc(-c2ccc(-c3ccc(F)cc3)nc2-c2ccc(OC)cc2)cc1` came in with a melting point of 118 to 120 °C.

The compound `COc1nc(C)c(N)cc1C` gave a melting point of 39.8 to 41 °C.

Compound `c1ccc(Cn2c3ccccc3c3ccccc32)cc1` yielded a melting point of 121 to 122 °C.

On to `CN(Cc1ccccc1)C1c2ccccc2CCCC1O` (stereo not given), for which the melting point was 70 °C.

In the case of `COC1(c2ccccc2)CCc2c(C)c(O)c(C)c(C)c2O1` (stereo not given), the melting point lay in the range of 190 to 192 °C.

Regarding `Oc1cccc(OCCn2ccnc2)c1`, the melting point was in the range of 125 to 127 °C.

The compound `COC(=O)COc1cccc(NC(=O)c2cc(-c3cccc(F)c3)ccc2F)c1` gave a melting point of 103 to 104 °C.

With `N#Cc1[nH]c2ccc(C(=O)O)cc2c1-c1ccccc1`, the melting point was in the range of 302 to 304 °C.

On to `O=C(Nc1cc(-c2nc(Cc3ccccc3)no2)ccn1)c1ccccc1`, for which the melting point was 150 to 151 °C.

`CCOC(=O)NC(=S)Nc1ccc(C(=O)OC(C)(C)C)cc1`: the melting point lay in the range of 119 to 120 °C.

For `O=C(Nc1ccccc1)O[C@@H]1CN=C(c2cccc(Cl)c2)O[C@H]1c1ccccc1` (racemic), the melting point turned out to be 126 °C.
